# Measurements as given in US9562059B2, “Anticancer maytansinoids with two fused macrocyclic rings” (priority 2013, dated 2017).
# “Also recorded” adds a separate entry of the source. Like-named read-outs stand apart in the source and are kept apart here.
# How the values were obtained:
# [1] = system: human oral epidermoid carcinoma KB cell line; assay: Cell culture panel bioassay, KB cell line; assay type: cell-based; conditions: read-out: IC50 KB
# Source text: (§1) Human oral epidermoid carcinoma KB cell line, human promyelocytic leukemia HL-60 cell line, human prostate carcinoma LNCaP cell line, human breast carcinoma MCF-7 cell line, human colon carcinoma Col2 cell line, and human lung carcinoma Lu1 cell line are activated from the frozen cells that are stored in Department of Medicinal Chemistry and Pharmacognosy, University of Illinois at Chicago, Chicago, Ill. Col2 cells are maintained in MEME medium. KB cells are maintained in DMEM medium. LNCaP cells are maintained in RPMI1640 medium with hormone-free 10% […] FBS (fetal bovine serum) supplemented with 0.1 nM testosterone, Lu1 cells are cultured in MEME medium. MCF-7 cells are maintained in MEME medium containing 10 mg/L of insulin. In each case, PSF (100 units/mL penicillin G, 100 μg/mL streptomycin sulfate, 250 ng/mL amphotericin B) is added. All media are supplemented with 10% heat-inactivated FBS.
# (§2) Extracts, fractions, and compounds are tested in a human oral epidermoid carcinoma (KB) cell line using established protocols. In addition, all pure compounds are evaluated against the other human cancer cell lines comprising our cytotoxicity screening panel. Cytotoxicity assays involving colon (Col-2), prostate (LNCaP), and lung (Lu1) carcinoma cell lines are performed using sulforhodamine B according to established protocols.
# [2] = system: human lung carcinoma Lu1 cell line; assay: Cell culture panel bioassay, Lu1 cell line; assay type: cell-based
# Source text: as §1, §2
# [3] = system: human colon carcinoma Col2 cell line; assay: Cell culture panel bioassay, Col2 cell line; assay type: cell-based
# Source text: as §1, §2
# [4] = system: human prostate carcinoma LNCaP cell line; assay: Cell culture panel bioassay, LNCaP cell line; assay type: cell-based; conditions: for IC50: read-out: IC50 LNCaP
# Source text: as §1, §2
# [5] = system: human breast carcinoma MCF-7 cell line; assay: Cell culture panel bioassay, MCF-7 cell line; assay type: cell-based
# Source text: as §1, §2
# [6] = system: KB, Col-2, LNCaP, Lu-1, and MCF-7 cell lines; assay: In vitro anti-tumor activity against the tumor cell line panel; assay type: cell-based, human; conditions: Lu-1, MCF-7
# Method: The in vitro anti-tumor activity of isolated compounds (1-6) is evaluated against KB, Col-2, LNCaP, Lu-1, and MCF-7 cell lines. […] However, because of the much different stereochemistry, the bimacrocyclic maytansinoid may have a different anticancer therapeutic window from that of mono-macrocyclic maytansine derivatives.
# as §1, with “In each case, PSF (100 units/mL penicillin G, 100 μg/mL streptomycin sulfate, 250 ng/mL amphotericin B) is added. All media are supplemented with 10% heat-inactivated FBS.” left out
# Extracts, fractions, and compounds are tested in a human oral epidermoid carcinoma (KB) cell line using established protocols. In addition, all pure compounds are evaluated against the other human cancer cell lines comprising our cytotoxicity screening panel. […]
# [7] = system: Lu1 cells; assay: In vivo hollow fiber test, Lu1 cells; parameters: species or system mice
# Method: (§3) Hollow fiber tests are well known in the art for providing preliminary indications of therapeutic efficacy (Mi et al. (2002), J. Nat. Prod. 65: 842-850). In hollow fiber tests, human tumor cell lines currently employed in cell cultures are grown inside semipermeable hollow fibers to form heterogeneous solid tumor models. The hollow fibers containing the human tumor cells are implanted in the intraperitoneal or subcutaneous compartments of host mice, and the mice treated with the test compound of interest (Hollingshead et al, (1995), Life Sciences 57(2):131-141).
# (§4) Loeseneriellin B isolated from Loeseneriella pauciflora (Celastraceae) is tested for in vivo hollow fiber study.
# [8] = system: Col2 cells; assay: In vivo hollow fiber test, Col2 cells; parameters: species or system mice
# Method: as §3, §4
# [9] = system: MCF7 cells; assay: In vivo hollow fiber test, MCF7 cells; parameters: species or system mice
# Method: as §3, §4
# [10] = system: HCT116 cancer cells; assay: HCT116 xenograft mouse model, tumor growth; assay type: in vivo, nude mice; conditions: for average tumor size (L×W×W) suppressed in comparison with the control group: after 21 days
# Method: (§5) HCT116 cancer cells (2×10^7 cells in 100 μL suspension) are subcutaneously implanted in the rear flank of each mouse. After 10 days, solid tumors appear at the implanted sites. […] Daily injections at i.v. sites were scheduled for 21 days.
# (§6) FIGS. 1 to 3 show the inhibition of HCT116-tumor xenograft growth by loeseneriellin B. The treatment started on the 10th day when the tumor size reached approximately 100 mm^3 (L×W×W).
# [11] = HCT116 xenograft mouse model, body weight; assay type: in vivo, nude mice; conditions: 20 and 40 μg/kg i.v. daily for 3 weeks (FIG. 3)
# Method: as §5, §6
# [12] = cited from earlier work
# [13] = system: KB cells; conditions: Powell et al. (1982); cited from earlier work
# [14] = system: P388 lymphocytic leukemia; conditions: Powell et al. (1982); cited from earlier work
# [15] = concentration required to inhibit cell growth by 50%, triplicate experiments
# [16] = concentration required to inhibit cell growth by 50%, triplicate experiments, read-out: IC50 Lu1
# [17] = concentration required to inhibit cell growth by 50%, triplicate experiments, read-out: IC50 Col2
# [18] = concentration required to inhibit cell growth by 50%, triplicate experiments, read-out: IC50 MCF-7
molecule,measurement,setting,value
"COc1cc2cc(c1Cl)N1CC(C)C(C)(O)C(=O)N[C@@H](C)C(=O)O[C@@H](CC1=O)[C@]1(C)OC1[C@H](C)[C@@H]1C[C@@](O)(NC(=O)O1)[C@H](OC)/C=C/C=C(\C)C2 (some centres unmarked) [Compound 1, Loeseneriellin B]",IC50,"[1]; Homo sapiens, KB",150 pM
same,IC50,"[2]; Homo sapiens, Lu1, read-out: IC50 Lu1",710 pM
same,IC50,"[3]; Homo sapiens, Col2, read-out: IC50 Col2",200 pM
same,IC50,"[4]; Homo sapiens, LNCaP",250 pM
same,IC50,"[5]; Homo sapiens, MCF7, read-out: IC50 MCF-7",680 pM
same,bioactivity compared with maytansine (3),[6],comparable bioactivity to that of maytansine
same,Inhibition (%),"[7]; Lu1-IP, dose 0.05 mg/kg",34.9%
same,Inhibition (%),"[7]; Lu1-IP, dose 0.1 mg/kg",20.9%
same,Inhibition (%),"[7]; Lu1-SC, dose 0.05 mg/kg",0%
same,Inhibition (%),"[7]; Lu1-SC, dose 0.1 mg/kg",0%
same,Inhibition (%),"[8]; Col2-IP, dose 0.05 mg/kg, listed as Loeseneriellin B",65.5%
same,Inhibition (%),"[8]; Col2-IP, dose 0.05 mg/kg, listed as loeseneriellin B",more than 65%
same,Inhibition (%),"[8]; Col2-IP, dose 0.1 mg/kg",70.5%
same,Inhibition (%),"[8]; Col2-SC, dose 0.05 mg/kg",0%
same,Inhibition (%),"[8]; Col2-SC, dose 0.1 mg/kg",1.4%
same,Inhibition (%),"[9]; MCF7-IP, dose 0.05 mg/kg, listed as Loeseneriellin B",57.2%
same,Inhibition (%),"[9]; MCF7-IP, dose 0.05 mg/kg, listed as loeseneriellin B",more than 65%
same,Inhibition (%),"[9]; MCF7-IP, dose 0.1 mg/kg",75.5%
same,Inhibition (%),"[9]; MCF7-IP, dose 0.2 mg/kg",84.6%
same,Inhibition (%),"[9]; MCF7-SC, dose 0.05 mg/kg",0%
same,Inhibition (%),"[9]; MCF7-SC, dose 0.1 mg/kg",0%
same,Inhibition (%),"[9]; MCF7-SC, dose 0.2 mg/kg",40.1%
same,"excised tumor weights, % inhibition versus control",[10]; high dose 40 μg/kg i.v. daily for 3 weeks (FIG. 2),41.7%
same,average tumor size (L×W×W) suppressed in comparison with the control group,[10]; high dose 40 μg/kg i.v. daily,41.7%
same,"excised tumor weights, % inhibition versus control",[10]; low dose 20 μg/kg i.v. daily for 3 weeks (FIG. 2),38.3%
same,average tumor size (L×W×W) suppressed in comparison with the control group,[10]; low dose 20 μg/kg i.v. daily,38.3%
same,body weights of mice,[11],No apparent weight loss; also recorded: insignificant change in body weights
"COc1cc2cc(c1Cl)N(C)C(=O)C[C@H](OC(=O)[C@H](C)N(C)C(C)=O)[C@]1(C)O[C@H]1[C@H](C)[C@@H]1C[C@@](O)(NC(=O)O1)[C@H](OC)/C=C/C=C(\C)C2 [Compound 3, Maytansine]",IC50,[1]; [15],170 pM
same,IC50,[2]; [16],770 pM
same,IC50,[3]; [17],190 pM
same,IC50,[4]; [15],320 pM
same,IC50,[5]; [18],690 pM
same,systemic toxicity in human clinical trials,[12],unacceptable systemic toxicity
"CCC(=O)N(C)[C@@H](C)C(=O)O[C@H]1CC(=O)N(C)c2cc(cc(OC)c2Cl)C/C(C)=C/C=C[C@@H](OC)[C@@]2(O)C[C@H](OC(=O)N2)[C@@H](C)[C@@H]2O[C@@]12C [Compound 4, Maytanprine]",IC50,[1]; [15],61 pM
same,IC50,[2]; [16],350 pM
same,IC50,[3]; [17],160 pM
same,IC50,[4]; [15],160 pM
same,IC50,[5]; [18],170 pM
"COc1cc2cc(c1Cl)N(C)C(=O)C[C@H](OC(=O)C(C)N(C)C(=O)C(C)C)[C@]1(C)O[C@H]1[C@H](C)[C@@H]1C[C@@](O)(NC(=O)O1)[C@H](OC)/C=C/C=C(\C)C2 (some centres unmarked) [Compound 5, Maytanbutine]",IC50,[1]; [15],50 pM
same,IC50,[2]; [16],130 pM
same,IC50,[3]; [17],61 pM
same,IC50,[4]; [15],54 pM
same,IC50,[5]; [18],130 pM
"COc1cc2cc(c1Cl)N(C)C(=O)CC(OC(=O)C(C)N(C)C(=O)CC(C)C)C1(C)OC1C(C)C1CC(O)(NC(=O)O1)C(OC)/C=C/C=C(\C)C2 (centres unmarked) [Compound 6, Maytanvaline]",IC50,[1]; [15],110 pM
same,IC50,[2]; [16],690 pM
same,IC50,[3]; [17],150 pM
same,IC50,[4]; [15],160 pM
same,IC50,[5]; [18],270 pM
CC(=O)O[C@H]1C(=O)[C@@]2(C)[C@H]([C@H](OC(=O)c3ccccc3)[C@]3(O)C[C@H](OC(=O)[C@H](O)[C@@H](NC(=O)c4ccccc4)c4ccccc4)C(C)=C1C3(C)C)[C@]1(OC(C)=O)CO[C@@H]1C[C@@H]2O [Paclitaxel],inhibition at 0.02 µg/mL,"[2]; Homo sapiens, Lu1, at 20 ng/mL, positive control, read-out: inhibition against Lu-1",56%
same,inhibition at 0.02 µg/mL,"[3]; Homo sapiens, Col2, at 20 ng/mL, positive control, read-out: inhibition against Col2",76%
same,inhibition at 0.02 µg/mL,"[4]; Homo sapiens, LNCaP, at 20 ng/mL, positive control, read-out: inhibition against LNCaP",89%
same,inhibition at 0.02 µg/mL,"[5]; Homo sapiens, MCF7, at 20 ng/mL, positive control, read-out: inhibition against MCF-7",71%
same,Inhibition (%),"[7]; Lu1-IP, dose 2.0 mg/kg",39.9%
same,Inhibition (%),"[7]; Lu1-SC, dose 2.0 mg/kg",0%
same,Inhibition (%),"[8]; Col2-SC, dose 2.0 mg/kg",6.9%
same,Inhibition (%),"[9]; MCF7-IP, dose 2.0 mg/kg",71.3%
same,Inhibition (%),"[9]; MCF7-SC, dose 2.0 mg/kg",0%
same,"excised tumor weights, % inhibition versus control",[10]; 5 mg/kg i.v. daily for 3 weeks (FIG. 2),37.6%
COc1cc2cc(c1Cl)N1CCC(C)(O)C(=O)N[C@@H](C)C(=O)O[C@@H](CC1=O)[C@]1(C)OC1[C@H](C)[C@@H]1C[C@@](O)(NC(=O)O1)[C@H](OC)/C=C/C=C(\C)C2OC (some centres unmarked) [treflorine],antitumor activity against KB cells,[13],retain antitumor activity
same,antitumor activity against P388 lymphocytic leukemia,[14],retain antitumor activity
COc1cc2cc(c1Cl)N1CC(O)C(C)(O)C(=O)N[C@@H](C)C(=O)O[C@@H](CC1=O)[C@]1(C)OC1[C@H](C)[C@@H]1C[C@@](O)(NC(=O)O1)[C@H](OC)/C=C/C=C(\C)C2OC (some centres unmarked) [trenudine],antitumor activity against KB cells,[13],retain antitumor activity
same,antitumor activity against P388 lymphocytic leukemia,[14],retain antitumor activity
"CC[C@]1(O)C[C@@H]2CN(CCc3c([nH]c4ccccc34)[C@@](C(=O)OC)(c3cc4c(cc3OC)N(C)[C@H]3[C@@](O)(C(=O)OC)[C@H](OC(C)=O)[C@]5(CC)C=CCN6CC[C@]43[C@@H]65)C2)C1 [vinblastine, Vinblastine]",inhibition at 0.04 µg/mL,"[2]; Homo sapiens, Lu1, at 40 ng/mL, positive control, read-out: inhibition against Lu-1",54%
same,inhibition at 0.04 µg/mL,"[3]; Homo sapiens, Col2, at 40 ng/mL, positive control, read-out: inhibition against Col2",87%
same,inhibition at 0.04 µg/mL,"[4]; Homo sapiens, LNCaP, at 40 ng/mL, positive control, read-out: inhibition against LNCaP",89%
same,inhibition at 0.04 µg/mL,"[5]; Homo sapiens, MCF7, at 40 ng/mL, positive control, read-out: inhibition against MCF-7",70%
Loeseneriellin A [Compound 2],IC50,[1]; [15],100 pM
same,IC50,[2]; [16],380 pM
same,IC50,[3]; [17],180 pM
same,IC50,[4]; [15],180 pM
same,IC50,[5]; [18],190 pM
